Results published in patent publication US20090074815A1, “Immunomodulator Compounds as Vaccine Enhancers” (SCICLONE PHARMACEUTICALS, INC., priority 2005, published 2009).
Where two headings read alike, the source gives them in different places.

System: IL-2 production by OvA-stimulated splenocytes
Experiment: OvA-stimulated production of IL-2 by splenocytes of OvA-immunized mice
Details: for activity at 0.0001 mg/kg / activity at 0.001 mg/kg / activity at 0.01 mg/kg: Mus musculus, Splenocyte, po
[1] = OvA/Alum, 0.1 μg/kg i/p, OvA 1 μg/ml
[2] = OvA/Alum, 0.1 μg/kg i/p, OvA 10 μg/ml
[3] = OvA/Alum, 0.1 μg/kg i/p, OvA 25 μg/ml
[4] = OvA/Alum, 0.1 μg/kg i/p, OvA 100 μg/ml
[5] = OvA/Alum, 1.0 μg/kg i/p, OvA 1 μg/ml
[6] = OvA/Alum, 1.0 μg/kg i/p, OvA 10 μg/ml
[7] = OvA/Alum, 1.0 μg/kg i/p, OvA 25 μg/ml
[8] = OvA/Alum, 1.0 μg/kg i/p, OvA 100 μg/ml
[9] = OvA/FA, 0.1 μg/kg i/p, OvA 1 μg/ml
[10] = OvA/FA, 0.1 μg/kg i/p, OvA 10 μg/ml
[11] = OvA/FA, 0.1 μg/kg i/p, OvA 25 μg/ml
[12] = OvA/FA, 0.1 μg/kg i/p, OvA 100 μg/ml

Procedure: The OvA was administered subcutaneously to the crest in a volume of 200 μl. Mice were immunized on day 1 with OvA in complete Freund's adjuvant (CFA; Sigma) and on day 15 with the antigen in incomplete Freund's adjuvant (IFA; Sigma). The immune response was analyzed on day 29. Mice were also immunized with 10 μg/mouse of OvA using Alum as an adjuvant.
Thymuses and spleens from mice of each treatment group were pooled, and then minced with scissors. The minced tissues were suspended in sterile PBS to form cell suspensions, filtered through a double gauze layer and centrifuged. Cells were washed twice with PBS, re-suspended in RPMI-1640 (Sigma) with 2.0 mM of L-glutamine, 50 μM of mercaptoethanol, and 10 μg/ml of gentamycin (complete medium); and cell counts were made. (The splenocyte suspension was washed with a 0.86% solution of NH4Cl to pre-lyse erthrocytes.)
Assessment of Mitogen- and Antigen-Induced Production of Cytokines: Thymic cells (1×10^6/well) in complete medium with 2% FCS were stimulated with ConA (0, 1, and 2 μg/ml). Splenocytes (1×10^6/well) in complete medium with 5% FCS were stimulated with ConA (0, 1, and 5 μg/ml) and with OvA (0-100 μg/ml). […] Supernatants from OvA-stimulated cultures were collected after 72 hours. Supernatants from both cultures were frozen, and kept at 20° C. Concentrations of IL-2, IL-4, IL-10, IL-12R40 and IFNγ in the supernatants were determined by solid-phase EIA with EIA Expansion Kits, available from BD Biosciences (formerly Pharmingen), in accordance with the manufacturer's instructions.

N[C@H](CCC(=O)N[C@@H](Cc1c[nH]c2ccccc12)C(=O)O)C(=O)O [SCV-07, γ-D-glutamyl-L-tryptophan]
activity at 0.0001 mg/kg (read-out: Production of IL-2 by splenocytes, % (% of control), OvA/Alum, 0.1 μg/kg per os, OvA 0 μg/ml): 100% | activity at 0.0001 mg/kg (read-out: Production of IL-2 by splenocytes, % (% of control), OvA/Alum, 0.1 μg/kg per os, OvA 1 μg/ml): 94.3% | activity at 0.0001 mg/kg (read-out: Production of IL-2 by splenocytes, % (% of control), OvA/Alum, 0.1 μg/kg per os, OvA 10 μg/ml): 72% | activity at 0.0001 mg/kg (read-out: Production of IL-2 by splenocytes, % (% of control), OvA/Alum, 0.1 μg/kg per os, OvA 25 μg/ml): 148% | activity at 0.0001 mg/kg (read-out: Production of IL-2 by splenocytes, % (% of control), OvA/Alum, 0.1 μg/kg per os, OvA 100 μg/ml): 52.5% | activity at 0.001 mg/kg (read-out: Production of IL-2 by splenocytes, % (% of control), OvA/Alum, 1.0 μg/kg per os, OvA 0 μg/ml): 100% | activity at 0.001 mg/kg (read-out: Production of IL-2 by splenocytes, % (% of control), OvA/Alum, 1.0 μg/kg per os, OvA 1 μg/ml): 57.7% | activity at 0.001 mg/kg (read-out: Production of IL-2 by splenocytes, % (% of control), OvA/Alum, 1.0 μg/kg per os, OvA 10 μg/ml): 113% | activity at 0.001 mg/kg (read-out: Production of IL-2 by splenocytes, % (% of control), OvA/Alum, 1.0 μg/kg per os, OvA 25 μg/ml): 75.4% | activity at 0.001 mg/kg (read-out: Production of IL-2 by splenocytes, % (% of control), OvA/Alum, 1.0 μg/kg per os, OvA 100 μg/ml): 74.7% | activity at 0.01 mg/kg (read-out: Production of IL-2 by splenocytes, % (% of control), OvA/Alum, 10.0 μg/kg per os, OvA 0 μg/ml): 100% | activity at 0.01 mg/kg (read-out: Production of IL-2 by splenocytes, % (% of control), OvA/Alum, 10.0 μg/kg per os, OvA 1 μg/ml): 191% | activity at 0.01 mg/kg (read-out: Production of IL-2 by splenocytes, % (% of control), OvA/Alum, 10.0 μg/kg per os, OvA 10 μg/ml): 87.2% | activity at 0.01 mg/kg (read-out: Production of IL-2 by splenocytes, % (% of control), OvA/Alum, 10.0 μg/kg per os, OvA 25 μg/ml): 75.6% | activity at 0.01 mg/kg (read-out: Production of IL-2 by splenocytes, % (% of control), OvA/Alum, 10.0 μg/kg per os, OvA 100 μg/ml): 104% | activity at 0.0001 mg/kg (read-out: Production of IL-2 by splenocytes, % (% of control), OvA/FA, 0.1 μg/kg per os, OvA 0 μg/ml): 100% | activity at 0.0001 mg/kg (read-out: Production of IL-2 by splenocytes, % (% of control), OvA/FA, 0.1 μg/kg per os, OvA 1 μg/ml): 32.4% | activity at 0.0001 mg/kg (read-out: Production of IL-2 by splenocytes, % (% of control), OvA/FA, 0.1 μg/kg per os, OvA 10 μg/ml): 43.9% | activity at 0.0001 mg/kg (read-out: Production of IL-2 by splenocytes, % (% of control), OvA/FA, 0.1 μg/kg per os, OvA 25 μg/ml): 119% | activity at 0.0001 mg/kg (read-out: Production of IL-2 by splenocytes, % (% of control), OvA/FA, 0.1 μg/kg per os, OvA 100 μg/ml): 44.8% | activity at 0.001 mg/kg (read-out: Production of IL-2 by splenocytes, % (% of control), OvA/FA, 1.0 μg/kg per os, OvA 0 μg/ml): 100% | activity at 0.001 mg/kg (read-out: Production of IL-2 by splenocytes, % (% of control), OvA/FA, 1.0 μg/kg per os, OvA 1 μg/ml): 67.6% | activity at 0.001 mg/kg (read-out: Production of IL-2 by splenocytes, % (% of control), OvA/FA, 1.0 μg/kg per os, OvA 10 μg/ml): 248% | activity at 0.001 mg/kg (read-out: Production of IL-2 by splenocytes, % (% of control), OvA/FA, 1.0 μg/kg per os, OvA 25 μg/ml): 125% | activity at 0.001 mg/kg (read-out: Production of IL-2 by splenocytes, % (% of control), OvA/FA, 1.0 μg/kg per os, OvA 100 μg/ml): 231% | activity at 0.01 mg/kg (read-out: Production of IL-2 by splenocytes, % (% of control), OvA/FA, 10.0 μg/kg per os, OvA 0 μg/ml): 100% | activity at 0.01 mg/kg (read-out: Production of IL-2 by splenocytes, % (% of control), OvA/FA, 10.0 μg/kg per os, OvA 1 μg/ml): 49.2% | activity at 0.01 mg/kg (read-out: Production of IL-2 by splenocytes, % (% of control), OvA/FA, 10.0 μg/kg per os, OvA 10 μg/ml): 187% | activity at 0.01 mg/kg (read-out: Production of IL-2 by splenocytes, % (% of control), OvA/FA, 10.0 μg/kg per os, OvA 25 μg/ml): 176% | activity at 0.01 mg/kg (read-out: Production of IL-2 by splenocytes, % (% of control), OvA/FA, 10.0 μg/kg per os, OvA 100 μg/ml): 293% | Production of IL-2 by splenocytes (OvA/Alum, 0.1 μg/kg i/p, OvA 0 μg/ml): 163.0 pg/mL | Production of IL-2 by splenocytes [1]: 190.3 pg/mL | Production of IL-2 by splenocytes, % (% of control) [1]: 116.7% | Production of IL-2 by splenocytes [2]: 87.5 pg/mL | Production of IL-2 by splenocytes, % (% of control) [2]: 53.7% | Production of IL-2 by splenocytes [3]: 83.5 pg/mL | Production of IL-2 by splenocytes, % (% of control) [3]: 51.2% | Production of IL-2 by splenocytes [4]: 84.8 pg/mL | Production of IL-2 by splenocytes, % (% of control) [4]: 52.0% | Production of IL-2 by splenocytes (OvA/Alum, 0.1 μg/kg per os, OvA 0 μg/ml): 172.9 pg/mL | Production of IL-2 by splenocytes (OvA/Alum, 0.1 μg/kg per os, OvA 1 μg/ml): 163.0 pg/mL | Production of IL-2 by splenocytes (OvA/Alum, 0.1 μg/kg per os, OvA 10 μg/ml): 124.5 pg/mL | Production of IL-2 by splenocytes (OvA/Alum, 0.1 μg/kg per os, OvA 25 μg/ml): 255.5 pg/mL | Production of IL-2 by splenocytes (OvA/Alum, 0.1 μg/kg per os, OvA 100 μg/ml): 90.8 pg/mL | Production of IL-2 by splenocytes (OvA/Alum, 1.0 μg/kg i/p, OvA 0 μg/ml): 113.4 pg/mL | Production of IL-2 by splenocytes [5]: 173.7 pg/mL | Production of IL-2 by splenocytes, % (% of control) [5]: 153.2% | Production of IL-2 by splenocytes [6]: 167.9 pg/mL | Production of IL-2 by splenocytes, % (% of control) [6]: 148.1% | Production of IL-2 by splenocytes [7]: 353.8 pg/mL | Production of IL-2 by splenocytes, % (% of control) [7]: 312.0% | Production of IL-2 by splenocytes [8]: 205.8 pg/mL | Production of IL-2 by splenocytes, % (% of control) [8]: 181.5% | Production of IL-2 by splenocytes (OvA/Alum, 1.0 μg/kg per os, OvA 0 μg/ml): 160.9 pg/mL | Production of IL-2 by splenocytes (OvA/Alum, 1.0 μg/kg per os, OvA 1 μg/ml): 92.8 pg/mL | Production of IL-2 by splenocytes (OvA/Alum, 1.0 μg/kg per os, OvA 10 μg/ml): 181.9 pg/mL | Production of IL-2 by splenocytes (OvA/Alum, 1.0 μg/kg per os, OvA 25 μg/ml): 121.3 pg/mL | Production of IL-2 by splenocytes (OvA/Alum, 1.0 μg/kg per os, OvA 100 μg/ml): 120.2 pg/mL | Production of IL-2 by splenocytes (OvA/Alum, 10.0 μg/kg per os, OvA 0 μg/ml): 289.4 pg/mL | Production of IL-2 by splenocytes (OvA/Alum, 10.0 μg/kg per os, OvA 1 μg/ml): 551.9 pg/mL | Production of IL-2 by splenocytes (OvA/Alum, 10.0 μg/kg per os, OvA 10 μg/ml): 252.5 pg/mL | Production of IL-2 by splenocytes (OvA/Alum, 10.0 μg/kg per os, OvA 25 μg/ml): 218.7 pg/mL | Production of IL-2 by splenocytes (OvA/Alum, 10.0 μg/kg per os, OvA 100 μg/ml): 300.8 pg/mL | Production of IL-2 by splenocytes (OvA/FA, 0.1 μg/kg i/p, OvA 0 μg/ml): 78.4 pg/mL | Production of IL-2 by splenocytes [9]: 10.2 pg/mL | Production of IL-2 by splenocytes, % (% of control) [9]: 13.0% | Production of IL-2 by splenocytes [10]: 72.7 pg/mL | Production of IL-2 by splenocytes, % (% of control) [10]: 92.7% | Production of IL-2 by splenocytes [11]: 85.8 pg/mL | Production of IL-2 by splenocytes, % (% of control) [11]: 109.4% | Production of IL-2 by splenocytes [12]: 95.5 pg/mL | Production of IL-2 by splenocytes, % (% of control) [12]: 121.8% | Production of IL-2 by splenocytes (OvA/FA, 0.1 μg/kg per os, OvA 0 μg/ml): 211.8 pg/mL | Production of IL-2 by splenocytes (OvA/FA, 0.1 μg/kg per os, OvA 1 μg/ml): 68.7 pg/mL | Production of IL-2 by splenocytes (OvA/FA, 0.1 μg/kg per os, OvA 10 μg/ml): 92.9 pg/mL | Production of IL-2 by splenocytes (OvA/FA, 0.1 μg/kg per os, OvA 25 μg/ml): 252.5 pg/mL | Production of IL-2 by splenocytes (OvA/FA, 0.1 μg/kg per os, OvA 100 μg/ml): 94.8 pg/mL | Production of IL-2 by splenocytes (OvA/FA, 1.0 μg/kg i/p, OvA 0 μg/ml): 147.7 pg/mL | Production of IL-2 by splenocytes (OvA/FA, 1.0 μg/kg i/p, OvA 1 μg/ml): 116.5 pg/mL
